Assay results published in ChEMBL document CHEMBL4024712, “Synthesis, stability and mechanistic studies of potent anticryptococcal hexapeptides” (Eur J Med Chem, 2017).
≈ marks a conversion by molar mass, not a printed value. Non-standard residues stand in square brackets, D forms with d. Residues, ends and D or L forms follow the SMILES beside them. His(τ-Bzl) = N[C@@H](Cc1cn(Cc2ccccc2)cn1)C(=O)O; Phe(4-Me) = Cc1ccc(C[C@H](N)C(=O)O)cc1; Cha = N[C@@H](CC1CCCCC1)C(=O)O; Phg = N[C@H](C(=O)O)c1ccccc1; Nle = CCCC[C@H](N)C(=O)O; Orn = NCCC[C@H](N)C(=O)O; Dab = NCC[C@H](N)C(=O)O

Tests used:
Aspergillus fumigatus = assay: Antifungal activity against Aspergillus fumigatus ATCC 90906 after 68 to 72 hrs by Alamar blue assay; format: functional
Pseudomonas aeruginosa = assay: Anti-bacterial activity against Pseudomonas aeruginosa ATCC 27853 by CLSI method; format: functional
[1] = tested on: Mycobacterium intracellulare; assay: Anti-bacterial activity against Mycobacterium intracellulare ATCC 23068 after 68 to 72 hrs by Alamar blue assay; format: functional, cell-based
Vero = assay: Cytotoxicity against African green monkey Vero cells up to 10 ug/ml after 48 hrs by neutral red dye based assay; format: cell-based; settings: chlorocebus sabaeus
Candida albicans = assay: Antifungal activity against Candida albicans ATCC 90028 after 18 to 24 hrs by Alamar blue assay; format: functional
Nakaseomyces glabratus = assay: Antifungal activity against Candida glabrata ATCC 90030 after 18 to 24 hrs by Alamar blue assay; format: functional
Escherichia coli = assay: Anti-bacterial activity against Escherichia coli ATCC 35218 by CLSI method; format: functional
Pichia kudriavzevii [2] = assay: Antifungal activity against Candida krusei ATCC 6258 after 18 to 24 hrs by Alamar blue assay; format: functional
Cryptococcus neoformans [3] = assay: Antifungal activity against Cryptococcus neoformans ATCC 90113 after 68 to 72 hrs by Alamar blue assay; format: functional
Cryptococcus neoformans [4] = assay: Fungicidal activity against Cryptococcus neoformans ATCC 90113 after 68 to 72 hrs by Alamar blue assay; format: functional
Staphylococcus aureus [5] = assay: Anti-bacterial activity against Staphylococcus aureus ATCC 29213 by CLSI method; format: functional
Staphylococcus aureus [6] = assay: Anti-bacterial activity against methicillin-resistant Staphylococcus aureus ATCC 33591 by CLSI method; format: functional
Pichia kudriavzevii [7] = assay: Fungicidal activity against Candida krusei ATCC 6258 after 18 to 24 hrs by Alamar blue assay; format: functional
[8] = Pichia kudriavzevii, ATCC 6258, read-out: IC50
[9] = Staphylococcus aureus, ATCC 29213, read-out: IC50
[10] = Staphylococcus aureus, ATCC 33591, read-out: IC50
[11] = Escherichia coli, ATCC 35218, read-out: IC50

SMILES	IC50 (Pseudomonas aeruginosa)	MIC (Cryptococcus neoformans [3])	IC50 (Aspergillus fumigatus)	IC50 [1]	Activity (Vero)	IC50 (Candida albicans)	IC50 (Nakaseomyces glabratus)	IC50 (Pichia kudriavzevii [2])	MFC (Cryptococcus neoformans [4])	other results
Cc1ccc(C[C@H](NC(=O)[C@@H](Cc2ccccc2)NC(=O)[C@@H](Cc2c[nH]c3ccccc23)NC(=O)[C@@H](N)CCN)C(=O)N[C@H](Cc2ccccc2)C(=O)N[C@@H](Cc2cn(Cc3ccccc3)cn2)C(N)=O)cc1 (H-[Dab][dW][dF][Phe(4-Me)][dF][His(τ-Bzl)]-NH2)	Not Active		Not Active	Not Active	Non-Toxic	Not Active	Not Active			IC50 (Escherichia coli): Not Active
CC[C@H](C)[C@H](NC(=O)[C@H](CC1CCCCC1)NC(=O)[C@@H]1CCCN1C(=O)[C@@H](N)CCCN)C(=O)N[C@H](Cc1ccccc1)C(=O)N[C@@H](Cc1cn(Cc2ccccc2)cn1)C(N)=O (H-[Orn]P[Cha]I[dF][His(τ-Bzl)]-NH2)	Not Active		Not Active	Not Active	Non-Toxic	Not Active	Not Active	Not Active	2.5 µg/mL (≈ 2.88 µM)	
CC[C@H](C)[C@H](NC(=O)[C@H](CC1CCCCC1)NC(=O)[C@H]1CCCN1C(=O)[C@@H](N)CCCN)C(=O)N[C@H](Cc1ccccc1)C(=O)N[C@@H](Cc1cn(Cc2ccccc2)cn1)C(N)=O (H-[Orn][dP][Cha]I[dF][His(τ-Bzl)]-NH2)	Not Active	2.5 µg/mL (≈ 2.88 µM)	Not Active	Not Active	Non-Toxic	Not Active	Not Active	Not Active	2.5 µg/mL (≈ 2.88 µM)	
CC(C)[C@H](NC(=O)[C@H](CC1CCCCC1)NC(=O)[C@@H](Cc1c[nH]c2ccccc12)NC(=O)[C@@H](N)CCCN)C(=O)N[C@H](Cc1ccccc1)C(=O)N[C@@H](Cc1cn(Cc2ccccc2)cn1)C(N)=O (H-[Orn][dW][Cha]V[dF][His(τ-Bzl)]-NH2)	Not Active	1.25 µg/mL (≈ 1.32 µM)	Not Active		Non-Toxic	Not Active	Not Active	Not Active	1.25 µg/mL (≈ 1.32 µM)	IC50 (Escherichia coli): Not Active
CC[C@@H](C)[C@@H](NC(=O)[C@H](CC1CCCCC1)NC(=O)[C@@H](Cc1c[nH]c2ccccc12)NC(=O)[C@@H](N)CCCN)C(=O)N[C@H](Cc1ccccc1)C(=O)N[C@@H](Cc1cn(Cc2ccccc2)cn1)C(N)=O (H-[Orn][dW][Cha][dI][dF][His(τ-Bzl)]-NH2)	Not Active		Not Active		Non-Toxic		Not Active			
CC(C)C[C@@H](NC(=O)[C@H](CC1CCCCC1)NC(=O)[C@@H](Cc1c[nH]c2ccccc12)NC(=O)[C@@H](N)CCCN)C(=O)N[C@H](Cc1ccccc1)C(=O)N[C@@H](Cc1cn(Cc2ccccc2)cn1)C(N)=O (H-[Orn][dW][Cha][dL][dF][His(τ-Bzl)]-NH2)	Not Active	2.5 µg/mL (≈ 2.61 µM)	Not Active		Non-Toxic	Not Active	Not Active			MIC (Staphylococcus aureus [5]; Staphylococcus aureus, ATCC 29213): 20 µg/mL (≈ 20.9 µM); IC50 (Pichia kudriavzevii [2]; [8]): 20 µg/mL (≈ 20.9 µM); IC50 (Escherichia coli): Not Active
Cc1ccc(C[C@H](NC(=O)[C@@H](Cc2ccccc2)NC(=O)[C@@H](Cc2c[nH]c3ccccc23)NC(=O)[C@@H](N)CCCN)C(=O)N[C@H](Cc2ccccc2)C(=O)N[C@@H](Cc2c[nH]cn2)C(N)=O)cc1 (H-[Orn][dW][dF][Phe(4-Me)][dF]H-NH2)	Not Active	1.25 µg/mL (≈ 1.37 µM)	Not Active	Not Active	Non-Toxic	Not Active	Not Active	Not Active	1.25 µg/mL (≈ 1.37 µM)	IC50 (Staphylococcus aureus [5]): Not Active; IC50 (Staphylococcus aureus [6]): Not Active; IC50 (Cryptococcus neoformans [3]): 0.8 µg/mL (≈ 0.879 µM); IC50 (Escherichia coli): Not Active
Cc1ccc(C[C@H](NC(=O)[C@@H](Cc2ccccc2)NC(=O)[C@@H](Cc2c[nH]c3ccccc23)NC(=O)[C@@H](N)CCCN)C(=O)N[C@H](Cc2ccccc2)C(=O)N[C@@H](CCN)C(N)=O)cc1 (H-[Orn][dW][dF][Phe(4-Me)][dF][Dab]-NH2) [listing 1 of 2 here]	Not Active		Not Active	Not Active	Non-Toxic	Not Active	Not Active			IC50 (Staphylococcus aureus [5]; [9]): 16.1 µg/mL (≈ 18.4 µM); IC50 (Pichia kudriavzevii [2]; [8]): 14.8 µg/mL (≈ 16.9 µM); IC50 (Staphylococcus aureus [6]; [10]): > 20 µg/mL; IC50 (Cryptococcus neoformans [3]): 0.8 µg/mL (≈ 0.916 µM); IC50 (Escherichia coli; [11]): 6 µg/mL (≈ 6.87 µM)
Cc1ccc(C[C@H](NC(=O)[C@@H](Cc2ccccc2)NC(=O)[C@@H](Cc2c[nH]c3ccccc23)NC(=O)[C@@H](N)CCCN)C(=O)N[C@H](Cc2ccccc2)C(=O)N[C@@H](CCN)C(N)=O)cc1 (H-[Orn][dW][dF][Phe(4-Me)][dF][Dab]-NH2) [listing 2 of 2 here]		1.25 µg/mL (≈ 1.43 µM)							1.25 µg/mL (≈ 1.43 µM)	MIC (Pichia kudriavzevii [2]; Pichia kudriavzevii, ATCC 6258): 20 µg/mL (≈ 22.9 µM); MFC (Pichia kudriavzevii [7]): 20 µg/mL (≈ 22.9 µM)
Cc1ccc(C[C@H](NC(=O)[C@@H](Cc2ccccc2)NC(=O)[C@@H](Cc2c[nH]c3ccccc23)NC(=O)[C@@H](N)CCCN)C(=O)N[C@H](Cc2ccccc2)C(=O)N[C@H](Cc2c[nH]cn2)C(N)=O)cc1 (H-[Orn][dW][dF][Phe(4-Me)][dF][dH]-NH2)	Not Active	1.25 µg/mL (≈ 1.37 µM)	Not Active	Not Active	Non-Toxic	Not Active	Not Active		1.25 µg/mL (≈ 1.37 µM)	IC50 (Staphylococcus aureus [5]; [9]): 18 µg/mL (≈ 19.8 µM); MIC (Pichia kudriavzevii [2]; Pichia kudriavzevii, ATCC 6258): 10 µg/mL (≈ 11 µM); IC50 (Pichia kudriavzevii [2]; [8]): 5.16 µg/mL (≈ 5.67 µM); IC50 (Staphylococcus aureus [6]; [10]): > 20 µg/mL; MFC (Pichia kudriavzevii [7]): 10 µg/mL (≈ 11 µM); IC50 (Cryptococcus neoformans [3]): 0.8 µg/mL (≈ 0.879 µM); IC50 (Escherichia coli; [11]): 12.7 µg/mL (≈ 14 µM)
O=C(O)c1cn(C2CC2)c2cc(N3CCNCC3)c(F)cc2c1=O [CIPROFLOXACIN]										IC50 ([1]; Mycobacterium intracellulare, ATCC 23068, read-out: IC50): 0.47 µg/mL (≈ 1.42 µM)

Now from value to molecule, other results behind:

IC50 (Pseudomonas aeruginosa)	MIC (Cryptococcus neoformans [3])	SMILES	IC50 (Aspergillus fumigatus)	IC50 [1]	Activity (Vero)	IC50 (Candida albicans)	IC50 (Nakaseomyces glabratus)	IC50 (Pichia kudriavzevii [2])	MFC (Cryptococcus neoformans [4])	other results
Not Active	2.5 µg/mL (≈ 2.72 µM)	CC[C@H](C)[C@H](NC(=O)[C@H](CC1CCCCC1)NC(=O)[C@H](Cc1ccccc1)NC(=O)[C@@H](N)CCCN)C(=O)N[C@H](Cc1ccccc1)C(=O)N[C@@H](Cc1cn(Cc2ccccc2)cn1)C(N)=O (H-[Orn]F[Cha]I[dF][His(τ-Bzl)]-NH2)	Not Active	Not Active	Non-Toxic	Not Active	Not Active	Not Active		
Not Active		CC[C@H](C)[C@H](NC(=O)[C@H](CC1CCCCC1)NC(=O)[C@H](CC(C)C)NC(=O)[C@@H](N)CCCN)C(=O)N[C@H](Cc1ccccc1)C(=O)N[C@@H](Cc1cn(Cc2ccccc2)cn1)C(N)=O (H-[Orn]L[Cha]I[dF][His(τ-Bzl)]-NH2)	Not Active	Not Active	Non-Toxic	Not Active	Not Active	Not Active	2.5 µg/mL (≈ 2.82 µM)	
Not Active		CCCC[C@H](NC(=O)[C@@H](N)CCCN)C(=O)N[C@@H](CC1CCCCC1)C(=O)N[C@H](C(=O)N[C@H](Cc1ccccc1)C(=O)N[C@@H](Cc1cn(Cc2ccccc2)cn1)C(N)=O)[C@@H](C)CC (H-[Orn][Nle][Cha]I[dF][His(τ-Bzl)]-NH2)	Not Active	Not Active	Non-Toxic	Not Active	Not Active	Not Active	2.5 µg/mL (≈ 2.82 µM)	
Not Active		CC[C@H](C)[C@H](NC(=O)[C@H](CC1CCCCC1)NC(=O)[C@@H](NC(=O)[C@@H](N)CCCN)c1ccccc1)C(=O)N[C@H](Cc1ccccc1)C(=O)N[C@@H](Cc1cn(Cc2ccccc2)cn1)C(N)=O (H-[Orn][Phg][Cha]I[dF][His(τ-Bzl)]-NH2)	Not Active	Not Active	Non-Toxic	Not Active	Not Active	Not Active		
Not Active		CC[C@H](C)[C@H](NC(=O)[C@H](CC1CCCCC1)NC(=O)[C@@H](Cc1ccccc1)NC(=O)[C@@H](N)CCCN)C(=O)N[C@H](Cc1ccccc1)C(=O)N[C@@H](Cc1cn(Cc2ccccc2)cn1)C(N)=O (H-[Orn][dF][Cha]I[dF][His(τ-Bzl)]-NH2)	Not Active		Non-Toxic	Not Active	Not Active	Not Active	1.25 µg/mL (≈ 1.36 µM)	
Not Active	1.25 µg/mL (≈ 1.41 µM)	CC[C@H](C)[C@H](NC(=O)[C@H](CC1CCCCC1)NC(=O)[C@@H](CC(C)C)NC(=O)[C@@H](N)CCCN)C(=O)N[C@H](Cc1ccccc1)C(=O)N[C@@H](Cc1cn(Cc2ccccc2)cn1)C(N)=O (H-[Orn][dL][Cha]I[dF][His(τ-Bzl)]-NH2)	Not Active		Non-Toxic	Not Active	Not Active	Not Active		MIC ([1]; Mycobacterium intracellulare, ATCC 23068): 20 µg/mL (≈ 22.6 µM)
